pEC50: −log10 of the molar value.
Assay: Inhibition of SARS-CoV-2 spike glycoprotein expressed in HEK293T cells transfected with pAAV-CAG-HnCovS-RFP assessed as inhibition of membrane fusion to Huh-7 cells expressing hACE2 measured after 4 hrs by cell-cell fusion based fluorescence assay

CC[C@H](C)[C@H](NC(=O)CNC(=O)[C@H](CO)NC(=O)[C@@H](NC(=O)[C@H](CC(=O)O)NC(C)=O)[C@@H](C)CC)C(=O)N[C@@H](CC(N)=O)C(=O)N[C@@H](C)C(=O)N[C@@H](CO)C(=O)N[C@H](C(=O)N[C@H](C(=O)N[C@@H](CC(N)=O)C(=O)N[C@H](C(=O)N[C@@H](CCC(N)=O)C(=O)N[C@@H](CCCCN)C(=O)N[C@@H](CCC(=O)O)C(=O)N[C@H](C(=O)N[C@@H](CC(=O)O)C(=O)N[C@@H](CCCNC(=N)N)C(=O)N[C@@H](CC(C)C)C(=O)N[C@@]1(C)CCCC=CCCC[C@@](C)(C(=O)N[C@@H](CC(N)=O)C(=O)N[C@@H](CC(C)C)C(=O)N[C@@H](CC(N)=O)C(=O)N[C@@H](CCC(=O)O)C(=O)N[C@@H](CO)C(=O)N[C@@H](CC(C)C)C(=O)N[C@H](C(=O)N[C@@H](CC(=O)O)C(=O)N[C@@H](CC(C)C)C(=O)N[C@@H](CCC(N)=O)C(=O)N[C@@H](CCC(=O)O)C(=O)N[C@@H](CC(C)C)C(N)=O)[C@@H](C)CC)NC(=O)[C@H](C)NC(=O)[C@H](C(C)C)NC(=O)[C@H](CCC(=O)O)NC1=O)[C@@H](C)CC)[C@@H](C)CC)C(C)C)C(C)C
pEC50: 5.30

— BindingDB's records for doi:10.1021/acs.jmedchem.1c01681 (Second Military Medical University, 2021)
